Test results: PMC6804006, “Synthesis, Biological Activities and Docking Studies of Novel 4-(Arylaminomethyl)benzamide Derivatives as Potential Tyrosine Kinase Inhibitors” (Molecules, 2019)

Tests used:
HER-4 = target: T1, HER-4 (Homo sapiens, UniProt Q15303); assay: ADP-Glo kinase inhibitory assay, HER-4; type: biochemical; settings: for inhibition at 0.01 µM: read-out: % Inhibition at 10 nM, HER-4; for inhibitory activity in relation to HER-4, in words: compared with imatinib
T1 construct: purchased Promega
Description: (§1) We investigated the kinase selectivity of targeted compounds against eight receptor tyrosine kinases including EGFR (epidermal growth factor receptor), HER-2 and HER4 (human epidermal growth factor receptor), IGF1R (insulin like growth factor 1 receptor), InsR (gene insulin receptor), KDR (kinase insert domain receptor), and PDGFRa and PDGFRb (platelet-derived growth factor receptors). The assay was performed using the Kinase-Glo Plus luminescence kinase assay kit (TK-1+ADP-Glo™, Promega, San Diego, CA, USA). It measures kinase activity by quantitating the amount of ATP remaining in solution following a kinase reaction.
(§2) The assay was performed using a Kinase Selectivity Profiling System (TK-1+ADP-Glo™ Assay and TK-2+ADP-Glo™ Assay, Promega), where the kinase activity was measured by quantifying the amount of ADP produced during a kinase reaction. The assay is performed in two steps; firstly, after the kinase reaction, an equal volume of ADP-Glo™ Reagent is added to terminate the kinase reaction and deplete the remaining ATP. Secondly, the Kinase Detection Reagent is added to simultaneously convert ADP to ATP and allow the newly synthesized ATP to be measured using a luciferase/luciferin reaction. The luminescent signal generated is proportional to the ADP concentration produced and is correlated with kinase activity. Our compounds were diluted with kinase buffer (5% DMSO), and 1 μL of the dilution was added to a 5-μL reaction so that the final concentration of DMSO was 1% in all of reactions. All of the enzymatic reactions were conducted at 23 °C for 60 min. The 5-μL reaction mixture contained 1µL of the compound solution, 2µL of the enzyme solution, and 2 µL of kinase substrate. After the enzymatic reaction, 5 µL of ADP-Glo™ Reagent (Promega, USA) was added to each reaction, and the plate was incubated for 40 min at 23 °C. Then, 10 µL of Kinase Detection Reagent (Promega, USA) was added to each reaction, and the plate was incubated for 30 min at 23 °C. Luminescence signal was measured using an Infinite M 200 plate reader (Tecan, Switzerland).
(§3) Kinase activity assays were performed in duplicate at each concentration. The luminescence data were analyzed using the computer software, Magellan™. The difference between luminescence intensities in the absence of Kinase (Lut) and in the presence of Kinase (Luc) was defined as 100% activity (Lut − Luc).

KDR (VEGFR2) = target: T2, KDR (VEGFR2) (Homo sapiens, UniProt P35968); assay: ADP-Glo kinase inhibitory assay, KDR; type: biochemical; settings: for inhibition at 0.01 µM: 10 nM
T2 construct: purchased Promega
Description: as §1
Vascular endothelial growth factor receptor 2 (VEGFR2), also called kinase insert domain receptor (KDR), is a tyrosine kinase receptor for VEGFs that plays a central role in tumor angiogenesis; therefore, the inhibition of VEGFR2 is a promising therapeutic strategy for inhibiting angiogenesis and tumor growth.
as §2, §3

[1] = tested on: K-562 (chronic myelogenous leukemia); assay: MTT anti-proliferative assay, K-562; type: cell-based; settings: Homo sapiens, K562, 48 h, 50% growth inhibition
Description: (§4) Each in vitro experiment was performed at least in triplicate, and the standard deviation of absorbance was less than 10% of the mean. For the in vitro assays, a stock solution (1% DMSO in the appropriate buffer with the tested compound diluted under sonication) was prepared from which several dilutions were made with the appropriate buffer.
(§5) Human cell lines were obtained from the Institute of Cytology, Russian Academy of Sciences. […] Cellular sensitivities to clofarabine and its lipid derivatives were measured with the MTT assay. Cells were plated in triplicate in 96-well plates (10^5 cells/well for suspended cell cultures and 5 × 10^3 cells/well for monolayer cultures); on the same day (suspended cell cultures) or on the following day (monolayer cultures), compounds were added at the appropriate dilutions. Plates were incubated under standard conditions for 48 h. Thereafter, 10 μL of MTT (Sigma) in phosphate-buffered saline (5 mg/mL) was added. The plates were incubated for an additional 4 h, and 150 μL of dimethyl sulfoxide (DMSO) was added to dissolve the formazan crystals. The optical density was read on a HALO MPR-95 Microplate Reader (Dynamica Scientific Ltd., Australia) at 570 nm. The antiproliferative effects were determined as degrees of inhibition of tumor cells (%).

[2] = tested on: RPMI 1788 (B lymphocyte, human normal cells); assay: MTT assay on normal cells RPMI 1788; type: cell-based; settings: MTT 48 h
Description: as §4
Human cell lines were obtained from the Institute of Cytology, Russian Academy of Sciences. The cell lines studied were maintained in RPMI 1640 medium (AppliChem, Darmstadt, Germany) supplemented with 20% (HL-60, RPMI 1788) fetal calf serum (HyClone, Cramlington, UK), in DMEM (A 549) and Eagle’s MEM (AppliChem) (MCF7, HeLa) with 10% fetal calf serum (HyClone). Cells were cultivated at 37 °C in a humidified atmosphere of 5% CO2. Cellular sensitivities to clofarabine and its lipid derivatives were measured with the MTT assay. Cells were plated in triplicate in 96-well plates (10^5 cells/well for suspended cell cultures and 5 × 10^3 cells/well for monolayer cultures); on the same day (suspended cell cultures) or on the following day (monolayer cultures), compounds were added at the appropriate dilutions. Plates were incubated under standard conditions for 48 h. Thereafter, 10 μL of MTT (Sigma) in phosphate-buffered saline (5 mg/mL) was added. The plates were incubated for an additional 4 h, and 150 μL of dimethyl sulfoxide (DMSO) was added to dissolve the formazan crystals. The optical density was read on a HALO MPR-95 Microplate Reader (Dynamica Scientific Ltd., Australia) at 570 nm. The antiproliferative effects were determined as degrees of inhibition of tumor cells (%).

IGF1R = target: T3, IGF1R (Homo sapiens, UniProt P08069); assay: ADP-Glo kinase inhibitory assay, IGF1R; type: biochemical; settings: for inhibition at 0.01 µM: read-out: % Inhibition at 10 nM, IGF1R
T3 construct: purchased Promega
Description: as §1, §2, §3

HER-2 = target: T4, HER-2 (Homo sapiens, UniProt P04626); assay: ADP-Glo kinase inhibitory assay, HER-2; type: biochemical; settings: for inhibition at 0.01 µM: read-out: % Inhibition at 10 nM, HER-2
T4 construct: purchased Promega
Description: as §1, §2, §3

EGFR = target: T5, EGFR (Homo sapiens, UniProt P00533); assay: ADP-Glo kinase inhibitory assay, EGFR; type: biochemical; settings: for inhibition at 0.01 µM: read-out: % Inhibition at 10 nM, EGFR
T5 construct: purchased Promega
Description: as §1, §2, §3

[3] = tested on: HL-60 (promyelocytic leukemia); assay: MTT anti-proliferative assay, HL-60; type: cell-based, human; settings: Homo sapiens, HL-60, 48 h, 50% growth inhibition
Description: as §4, §5

PDGFRb = target: T6, PDGFRb (Homo sapiens, UniProt P09619); assay: ADP-Glo kinase inhibitory assay, PDGFRb; type: biochemical; settings: for inhibition at 0.01 µM: read-out: % Inhibition at 10 nM, PDGFRb
T6 construct: purchased Promega
Description: as §1, §2, §3

PDGFRa = target: T7, PDGFRa (Homo sapiens, UniProt P16234); assay: ADP-Glo kinase inhibitory assay, PDGFRa; type: biochemical; settings: for inhibition at 0.01 µM: read-out: % Inhibition at 10 nM, PDGFRa
T7 construct: purchased Promega
Description: as §1, §2, §3

InsR = target: T8, InsR (Homo sapiens, UniProt P06213); assay: ADP-Glo kinase inhibitory assay, InsR; type: biochemical; settings: for selectivity for the gene insulin receptor, in words: panel of eight receptor tyrosine kinases; for inhibition at 0.01 µM: read-out: % Inhibition at 10 nM, InsR
T8 construct: purchased Promega
Description: as §1, §2, §3

T1 sequence (Q15303 26-1308): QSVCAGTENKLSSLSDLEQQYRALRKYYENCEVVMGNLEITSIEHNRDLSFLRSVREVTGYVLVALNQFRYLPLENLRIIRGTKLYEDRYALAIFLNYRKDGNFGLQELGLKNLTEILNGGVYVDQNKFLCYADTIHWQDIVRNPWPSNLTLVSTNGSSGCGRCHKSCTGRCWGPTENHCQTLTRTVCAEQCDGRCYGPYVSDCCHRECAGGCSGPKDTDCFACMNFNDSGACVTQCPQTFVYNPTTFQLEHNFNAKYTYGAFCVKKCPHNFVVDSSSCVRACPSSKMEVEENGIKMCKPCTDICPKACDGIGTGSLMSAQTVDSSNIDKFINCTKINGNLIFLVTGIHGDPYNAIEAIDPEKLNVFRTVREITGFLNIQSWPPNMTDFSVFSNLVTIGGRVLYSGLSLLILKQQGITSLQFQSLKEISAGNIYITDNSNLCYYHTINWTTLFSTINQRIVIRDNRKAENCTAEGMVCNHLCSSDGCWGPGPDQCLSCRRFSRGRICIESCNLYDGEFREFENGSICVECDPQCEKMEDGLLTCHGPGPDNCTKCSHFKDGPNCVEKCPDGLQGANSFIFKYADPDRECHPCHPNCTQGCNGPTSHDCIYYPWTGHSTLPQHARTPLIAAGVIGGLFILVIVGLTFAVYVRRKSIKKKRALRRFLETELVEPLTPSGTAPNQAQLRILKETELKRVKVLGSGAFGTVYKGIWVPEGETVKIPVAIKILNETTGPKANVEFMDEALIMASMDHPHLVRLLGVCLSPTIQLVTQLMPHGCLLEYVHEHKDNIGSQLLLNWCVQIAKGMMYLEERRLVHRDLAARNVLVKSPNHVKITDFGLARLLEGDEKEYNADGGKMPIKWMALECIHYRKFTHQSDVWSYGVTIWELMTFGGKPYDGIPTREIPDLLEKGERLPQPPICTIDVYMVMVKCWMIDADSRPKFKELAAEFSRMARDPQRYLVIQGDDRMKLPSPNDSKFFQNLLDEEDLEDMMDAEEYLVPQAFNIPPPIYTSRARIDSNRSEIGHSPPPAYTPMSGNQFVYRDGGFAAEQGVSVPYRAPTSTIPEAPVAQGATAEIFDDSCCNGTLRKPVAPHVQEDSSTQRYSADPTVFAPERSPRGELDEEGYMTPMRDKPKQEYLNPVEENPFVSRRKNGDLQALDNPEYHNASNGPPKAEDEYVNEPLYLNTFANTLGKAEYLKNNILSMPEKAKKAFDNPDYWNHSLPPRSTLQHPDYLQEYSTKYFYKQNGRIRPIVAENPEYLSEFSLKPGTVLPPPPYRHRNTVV
T6 sequence (P09619 33-1106): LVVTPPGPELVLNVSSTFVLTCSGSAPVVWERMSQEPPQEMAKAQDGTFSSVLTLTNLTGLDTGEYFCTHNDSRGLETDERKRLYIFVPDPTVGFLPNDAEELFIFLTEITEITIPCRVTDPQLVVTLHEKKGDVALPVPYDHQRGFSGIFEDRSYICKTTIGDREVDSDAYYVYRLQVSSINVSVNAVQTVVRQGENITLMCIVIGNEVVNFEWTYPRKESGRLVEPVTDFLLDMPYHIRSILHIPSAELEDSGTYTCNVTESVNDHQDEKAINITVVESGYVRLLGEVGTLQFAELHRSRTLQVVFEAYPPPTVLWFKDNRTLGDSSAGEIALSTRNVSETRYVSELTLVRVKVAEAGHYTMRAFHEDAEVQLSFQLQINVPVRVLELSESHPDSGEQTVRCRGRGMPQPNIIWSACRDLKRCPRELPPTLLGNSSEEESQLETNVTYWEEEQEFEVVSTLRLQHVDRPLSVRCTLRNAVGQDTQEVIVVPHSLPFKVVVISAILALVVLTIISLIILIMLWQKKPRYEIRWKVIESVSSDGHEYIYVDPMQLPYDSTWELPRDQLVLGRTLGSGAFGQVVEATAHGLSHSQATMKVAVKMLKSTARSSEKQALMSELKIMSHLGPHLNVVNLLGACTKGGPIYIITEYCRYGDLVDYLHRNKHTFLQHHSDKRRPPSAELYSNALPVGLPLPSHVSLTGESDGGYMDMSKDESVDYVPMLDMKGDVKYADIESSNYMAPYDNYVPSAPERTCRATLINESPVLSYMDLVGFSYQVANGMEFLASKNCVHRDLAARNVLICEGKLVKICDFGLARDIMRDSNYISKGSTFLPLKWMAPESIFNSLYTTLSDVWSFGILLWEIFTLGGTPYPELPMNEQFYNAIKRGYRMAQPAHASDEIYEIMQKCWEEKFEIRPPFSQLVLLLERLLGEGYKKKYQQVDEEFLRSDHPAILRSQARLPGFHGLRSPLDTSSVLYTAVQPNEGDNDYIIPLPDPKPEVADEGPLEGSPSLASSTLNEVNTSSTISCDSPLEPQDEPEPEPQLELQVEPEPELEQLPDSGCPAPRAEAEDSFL
T3 sequence (P08069 31-1367): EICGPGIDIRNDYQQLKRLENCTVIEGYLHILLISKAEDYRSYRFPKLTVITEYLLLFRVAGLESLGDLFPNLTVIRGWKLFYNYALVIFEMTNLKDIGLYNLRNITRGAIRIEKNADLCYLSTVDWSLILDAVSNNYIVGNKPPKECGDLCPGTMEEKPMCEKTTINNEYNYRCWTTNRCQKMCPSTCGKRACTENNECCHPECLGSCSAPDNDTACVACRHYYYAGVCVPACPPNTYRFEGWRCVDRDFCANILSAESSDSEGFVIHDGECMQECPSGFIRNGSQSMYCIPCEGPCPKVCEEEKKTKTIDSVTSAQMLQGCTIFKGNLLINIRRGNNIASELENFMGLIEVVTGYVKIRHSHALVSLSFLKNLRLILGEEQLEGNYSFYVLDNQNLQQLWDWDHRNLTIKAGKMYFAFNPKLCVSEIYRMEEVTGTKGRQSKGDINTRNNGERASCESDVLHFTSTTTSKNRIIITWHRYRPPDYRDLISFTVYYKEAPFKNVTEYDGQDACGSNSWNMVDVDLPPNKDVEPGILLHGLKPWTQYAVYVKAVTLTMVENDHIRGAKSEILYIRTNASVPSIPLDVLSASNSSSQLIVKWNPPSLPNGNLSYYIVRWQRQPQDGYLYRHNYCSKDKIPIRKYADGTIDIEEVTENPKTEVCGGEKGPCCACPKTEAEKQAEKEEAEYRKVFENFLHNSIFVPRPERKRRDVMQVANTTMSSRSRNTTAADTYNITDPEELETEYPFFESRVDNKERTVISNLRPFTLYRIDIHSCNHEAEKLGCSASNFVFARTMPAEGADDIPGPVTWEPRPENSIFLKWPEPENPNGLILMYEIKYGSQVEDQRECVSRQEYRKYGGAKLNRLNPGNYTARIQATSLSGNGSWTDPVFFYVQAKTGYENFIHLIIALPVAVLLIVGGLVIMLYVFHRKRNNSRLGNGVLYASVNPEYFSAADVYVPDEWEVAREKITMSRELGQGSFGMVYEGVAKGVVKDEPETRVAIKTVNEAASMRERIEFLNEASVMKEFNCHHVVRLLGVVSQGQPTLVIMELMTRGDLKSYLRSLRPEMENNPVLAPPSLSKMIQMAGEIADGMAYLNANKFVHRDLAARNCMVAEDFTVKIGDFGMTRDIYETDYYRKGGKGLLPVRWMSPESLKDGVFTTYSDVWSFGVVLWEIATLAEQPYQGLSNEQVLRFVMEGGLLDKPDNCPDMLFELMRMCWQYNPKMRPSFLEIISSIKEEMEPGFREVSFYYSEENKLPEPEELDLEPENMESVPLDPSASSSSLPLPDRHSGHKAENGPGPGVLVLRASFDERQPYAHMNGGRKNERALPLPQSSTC
T8 sequence (P06213 28-1382): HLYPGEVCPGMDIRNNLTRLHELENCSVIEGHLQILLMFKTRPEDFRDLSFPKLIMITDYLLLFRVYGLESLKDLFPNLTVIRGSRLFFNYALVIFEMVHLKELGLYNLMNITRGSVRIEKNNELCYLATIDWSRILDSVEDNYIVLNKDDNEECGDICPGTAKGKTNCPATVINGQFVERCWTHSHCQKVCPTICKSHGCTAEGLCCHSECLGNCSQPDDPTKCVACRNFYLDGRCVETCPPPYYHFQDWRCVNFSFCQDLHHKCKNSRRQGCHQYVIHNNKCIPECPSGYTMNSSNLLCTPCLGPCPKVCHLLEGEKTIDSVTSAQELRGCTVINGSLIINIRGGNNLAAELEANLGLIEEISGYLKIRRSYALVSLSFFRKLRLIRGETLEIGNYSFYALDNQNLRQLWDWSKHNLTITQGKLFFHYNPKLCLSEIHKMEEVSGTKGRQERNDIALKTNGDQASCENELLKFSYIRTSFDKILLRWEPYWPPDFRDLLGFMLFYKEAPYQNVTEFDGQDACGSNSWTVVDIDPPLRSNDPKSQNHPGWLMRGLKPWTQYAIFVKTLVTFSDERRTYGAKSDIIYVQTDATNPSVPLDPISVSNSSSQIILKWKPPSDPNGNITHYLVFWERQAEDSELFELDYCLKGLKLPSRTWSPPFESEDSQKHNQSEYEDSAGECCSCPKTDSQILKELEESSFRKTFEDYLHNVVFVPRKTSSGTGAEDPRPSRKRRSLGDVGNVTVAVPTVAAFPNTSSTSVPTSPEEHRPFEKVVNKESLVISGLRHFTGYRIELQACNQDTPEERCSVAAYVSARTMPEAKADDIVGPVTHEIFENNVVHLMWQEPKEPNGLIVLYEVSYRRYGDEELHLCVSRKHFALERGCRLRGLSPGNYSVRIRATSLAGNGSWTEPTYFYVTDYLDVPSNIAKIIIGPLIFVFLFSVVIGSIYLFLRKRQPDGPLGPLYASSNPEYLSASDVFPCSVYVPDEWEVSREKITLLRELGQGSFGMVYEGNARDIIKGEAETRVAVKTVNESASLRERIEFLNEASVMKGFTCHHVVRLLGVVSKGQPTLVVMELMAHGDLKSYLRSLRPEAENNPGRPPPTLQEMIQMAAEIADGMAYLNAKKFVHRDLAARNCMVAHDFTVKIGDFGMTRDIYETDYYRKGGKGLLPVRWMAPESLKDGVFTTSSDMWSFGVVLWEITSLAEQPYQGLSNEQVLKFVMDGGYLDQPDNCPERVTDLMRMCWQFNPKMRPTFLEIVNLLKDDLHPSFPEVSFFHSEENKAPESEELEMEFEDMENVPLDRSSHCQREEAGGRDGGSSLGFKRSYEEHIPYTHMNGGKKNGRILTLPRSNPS

Row | inhibition at 0.01 µM (HER-4) [%] | inhibition at 0.01 µM (KDR (VEGFR2)) [%] | inhibition at 0.01 µM (IGF1R) [%] | inhibition at 0.01 µM (HER-2) [%] | inhibition at 0.01 µM (EGFR) [%] | melting point [°C] | inhibition at 0.01 µM (PDGFRb) [%] | inhibition at 0.01 µM (PDGFRa) [%] | inhibition at 0.01 µM (InsR) [%] | inhibitory activity in relation to HER-4, in words (HER-4; 10 nM) | Compound | other results
1 | 0 | 0 | 0 | 0 | 0 | 231 to 233 | 0 | 0 | 49 | – | CNC(=O)c1cc(Oc2ccc(NC(=O)c3ccc(CNc4cc([N+](=O)[O-])ccc4C)cc3)cc2)ccn1 [Compound 17, 4-{[(2-Methyl-5-nitrophenyl)amino]methyl}-N-(4-{[2-(methylcarbamoyl)pyridin-4-yl]oxy}phenyl) benzoate] | selectivity for the gene insulin receptor, in words (InsR; 10 nM): high selectivity
2 | 57 | 48 | 18 | 0 | 56 | 170 to 171 | 28 | 77 | 0 | comparable to imatinib | CNC(=O)c1cc(Oc2ccc(NCc3ccc(C(=O)Nc4cccc(C(F)(F)F)c4)cc3)cc2)ccn1 [Compound 20, 4-{[(4-{[2-(Methylcarbamoyl)pyridin-4-yl]oxy}phenyl)amino]methyl}-N-[3-(trifluoromethyl)phenyl]benzamide] | –
3 | – | – | – | – | – | 162 to 164 | – | – | – | – | CCOC(=O)CC[C@H](NC(=O)c1ccc(CNc2ccc(Oc3ccnc(C(=O)NC)c3)cc2)cc1)C(=O)OCC [Compound 21, Diethyl (4-(((4-((2-(methylcarbamoyl)pyridin-4-yl)oxy)phenyl)amino)methyl)benzoyl)glutamate] | –
4 | – | – | – | – | – | – | – | – | – | comparable to imatinib | N-(3-(4-methyl-1H-imidazol-1-yl)-5-(trifluoromethyl)phenyl)-4-(((4-(pyridin-2-yl)pyrimidin-2-yl)amino)methyl)benzamide [Compound 22] | % Inhibition at 10 nM, HER-4 (HER-4; 10 nM): 49%; % Inhibition at 10 nM, KDR (KDR (VEGFR2)): 28%; % Inhibition at 10 nM, IGF1R (IGF1R; 10 nM): 0%; % Inhibition at 10 nM, HER-2 (HER-2; 10 nM): 0%; % Inhibition at 10 nM, EGFR (EGFR; 10 nM): 21%; % Inhibition at 10 nM, PDGFRb (PDGFRb; 10 nM): 0%; % Inhibition at 10 nM, PDGFRa (PDGFRa; 10 nM): 0%; % Inhibition at 10 nM, InsR (InsR; 10 nM): 0%

Second part, the compound before the results:

Row | Compound | inhibition at 0.01 µM (HER-4) [%] | inhibition at 0.01 µM (KDR (VEGFR2)) [%] | inhibition at 0.01 µM (IGF1R) [%] | inhibition at 0.01 µM (HER-2) [%] | inhibition at 0.01 µM (EGFR) [%] | melting point [°C] | inhibition at 0.01 µM (PDGFRb) [%] | inhibition at 0.01 µM (PDGFRa) [%] | inhibition at 0.01 µM (InsR) [%] | inhibitory activity in relation to HER-4, in words (HER-4; 10 nM) | other results
5 | CCOC(=O)CCC(NC(=O)c1ccc(CNc2cc(-n3cnc(C)c3)cc(C(F)(F)F)c2)cc1)C(=O)OCC (stereo not drawn) [Compound 14, Diethyl(4-(((3-(4-methyl-1H-imidazol-1-yl)-5-(trifluoromethyl)phenyl)amino)methyl)benzoyl)glutamate] | 0 | 0 | 0 | 0 | 0 | 125 to 127 | 0 | 0 | 23 | – | IC50 [1]: 50 µM; inhibition at 100 µM [2]: 10.4%; IC50 [3]: 45 µM; selectivity for the gene insulin receptor, in words (InsR; 10 nM): high selectivity
6 | CCOC(=O)CC[C@H](NC(=O)c1ccc(CNc2cc([N+](=O)[O-])ccc2C)cc1)C(=O)OCC [Compound 16, Diethyl (4-(((2-methyl-5-nitrophenyl)amino)methyl)benzoyl)glutamate] | – | – | – | – | – | 127 to 129 | – | – | – | – | –
7 | Cc1ccc([N+](=O)[O-])cc1NCc1ccc(C(=O)Nc2cccc(C(F)(F)F)c2)cc1 [Compound 18, 4-{[(2-Methyl-5-nitrophenyl)amino]methyl}-N-[3-(trifluoromethyl)phenyl]benzamide] | 56 | 24 | 0 | 14 | 0 | 169 to 171 | 13 | 67 | 0 | comparable to imatinib | –
8 | COC(=O)c1ccc(N)c(NC(=O)c2ccc(CNc3cc([N+](=O)[O-])ccc3C)cc2)c1 [Compound 19, Methyl 4-amino-3-[(4-{[(2-methy-5-nitrophenyl)amino]methyl}benzoyl)amino]benzoate] | – | – | – | – | – | 208 to 210 | – | – | – | – | IC50 [1]: 64 µM; inhibition at 100 µM [2]: 10%; IC50 [3]: > 100 µM
9 | O=C(Nc1cccc(C(F)(F)F)c1)c1ccc(CNc2nccc(-c3cccnc3)n2)cc1 [Compound 24, 4-({[4-(Pyridin-3-yl)pyrimidin-2-yl]amino}methyl)-N-[3-(trifluoromethyl)phenyl]benzamide] | 44 | 2 | 0 | 0 | 24 | 138 to 141 | 0 | 0 | 0 | comparable to imatinib | –
10 | Cc1ccc([N+](=O)[O-])cc1NC(=O)c1ccc(CNc2nccc(-c3cccnc3)n2)cc1 [Compound 25, 4-({[4-(Pyridin-3-yl)pyrimidin-2-yl]amino}methyl)-N-{[(2-methyl-5-nitrophenyl) benzoate] | – | – | – | – | – | 175 to 176 | – | – | – | – | –
11 | Cc1ccc(NC(=O)c2ccc(CN3CCN(C)CC3)cc2)cc1Nc1nccc(-c2cccnc2)n1 [Imatinib, reference compound] | 42 | 0 | 0 | 0 | 0 | – | 75 | 56 | 36 | – | inhibition at 100 µM [2]: 13.4%
